In US9139615B2, “High-affinity, dimeric inhibitors of PSD-95 as efficient neuroprotectants against ischemic brain damage and for treatment of pain” (University of Copenhagen, priority 2011, dated 2015):
Entries after “also recorded” stand apart in the source; their conditions may differ. Where no end group is shown, it is not given here.

Experiments:
[1] = Human blood plasma stability assay; assay type: in vitro ADME; conditions: human, plasma; 0.25 mM, 37° C., in vitro; read-out: half-life (T1/2) in human blood plasma
Description: Ligands (dimeric PSD-95 inhibitors) for the PDZ domain of PSD-95 were dissolved in human blood plasma (270 μL; 3H Biomedical, Sweden, cat no 1300-1-P50) to a concentration of 0.25 mM (30 μL, of 2.5 mM) and incubated at 37° C. Aliquots (30 μL) were removed at various time intervals (e.g. 0, 5, 10, 20, 40, 80, 160, 320, 960, 1280, 2550, 4560 and 7240 min) and quenched with 60 μL, trichloroacetic acid (aq., 5%). The aliquots were vortexed, and incubated 15 min, at 4° C. prior to centrifugation at 18,000 g for 2 min. The supernatants were analyzed by analytical RP-HPLC (UV218) to quantify compound relative to time zero, and also evaluated qualitatively by ESI-LC/MS in order to identify the compound (m/z) in the sample. Procaine (positive control) and procainamide (negative control) were investigated at 50 μM to validate the procedure. Ligand recoveries following the precipitation procedure were between 85-95%.

[2] = tested on: pMCAO model of ischemic stroke; assay: Grip strength after pMCAO; assay type: in vivo, mice; conditions: 48 hours after pMCAO, 3 nmol/g i.v.
Description: The grip strength meter (BIO-GT-3, BIOSEB) allows the study of neuromuscular functions in mice by determining the maximum force that is required to make the mouse release its grip. The grip strength in individual paws was used to measure the severity of the pMCAO-induced asymmetry. The mouse is allowed to grasp a metal grid and then pulled backwards in the horizontal plane. The force applied to the grid is recorded as the peak tension. The strength of individual front paws and the total grip strength (both paws simultaneously) were measured before (baseline) and after pMCAO. Each mouse is tested in 5 sequential trials and the highest grip strength is recorded as the best score.

[3] = Blood-brain barrier permeability of fluorescent analogues; assay type: in vivo, mice; conditions: mice, conclusion for unlabeled compounds
Description: VI.ii. Blood-brain Barrier Permeability. […] After injection of the compounds, the mice are perfused with paraformaldehyde and the brains are carefully removed, post-fixed in paraformaldehyde, processed into coronal sections, and quantified for fluorescence (Example 8).
The fluorescent ligands were injected intravenously (3 nmol/g) and the location of the ligands was detected by fluorescence microscopy of coronal brain slices (n=8) mice, was evaluated 2 hours after injection. Two sections of the brain, prior to and two after the anterior commissure (n=5), were selected for BBB permeability analysis. The anterior commissure (Bregma: −0.3) was used as a fix point in the brain in order to analyse anatomically identical brain sections. The intensity of the 5-FAM fluorophore was measured semi-quantitatively using a fluorescence microscopy system (Olympus System Microscope model BX-51, Denmark) with a 10× objective (Olympus 10×/0.15 UPlanApo) connected to a high-resolution microscope digital camera (Olympus model DP70), which transferred images to an image-capturing software (Image Pro Plus software). All images were taken using the same microscope settings and with constant camera exposure time. Intensities were quantified using the ImageJ software.
5-FAM-labeled derivative of Tat-NR2B9c is designated MS23. After injection of the compounds, the mice are perfused with paraformaldehyde and the brains are carefully removed, post-fixed in paraformaldehyde, processed into coronal sections, and quantified for fluorescence.
C57BL/6 mice with 6 hour post-surgical survival time were euthanized by cervical dislocation. C57BL/6 mice with 48 hour post-surgical survival were anesthetized with an overdosed of pentobarbital (the pharmacy of the Faculty of Life Sciences, University of Copenhagen, Denmark) in order to collect blood and tissue samples. All brains were carefully removed, frozen in gaseous CO2 and cut into 6 series of 30 μm coronal cryostat sections and stored at −80° C. until further use. C57BL/6J mice used to investigate the blood-brain barrier (BBB) permeability of AB143, AB145, AB148, and MS23 were deeply anesthetized and perfused through the left ventricle, using 10 ml chilled Soerensens phosphate buffer (SB) ([…], 125 mM Na2HPO4, pH 7.4) followed by 20 mL SB containing 4% paraformaldehyde (PFA). The brains were carefully removed and post-fixed in 4% PFA for 1 hour followed by immersion in SB containing 20% sucrose over night. The brains were frozen on gaseous CO2 and processed into 16 μm coronal cryostat sections.

[4] = tested on: CFA-induced mechanical allodynia/hyperalgesia; assay: Complete Freund's adjuvant (CFA) inflammatory pain, von Frey test; assay type: in vivo, mice; conditions: administered concurrently with CFA, 1 hour and 24 hours after treatment
[5] = tested on: pMCAO model of ischemic stroke; assay: Rotarod performance test after pMCAO; assay type: in vivo, mice; conditions: 48 hours after pMCAO; for total time spent on the rod: 3 nmol/g i.v., four trials
Description: The rotarod (LE 8200, Panlab) is well suited to evaluate motor activity in rodents, experimental compound effects on central nervous system damage, or disease effects on motor coordination, assessed by the time during which the animal remains walking in a rotating drum. The rotation of the rotarod is motor drived and accelerates from 0 to 40 rounds per min (rpm) over a time period of 5 min, at which time all mice have fallen off the rod. All mice were tested in 4 repeating trials with a 20 min interval (resting time). Prior to surgery mice were pre-trained to stay on the rod for 30 seconds, at 4 rpm.

[6] = Spinal cord detection of fluorescent PSD-95 inhibitors; assay type: in vivo, mice; conditions: conclusion for unlabeled compounds
Description: To investigate if AB143 and AB145 are able to enter spinal cord tissue, they were administered to the mice by intraperitoneal injection (30 mg/kg). The drug-treated mice were decapitated 30 min after injection, and the spinal cord was carefully dissected out, to which 5% trichloroacetic acid (TCA) (300 μL per 0.1 g tissue) was added and the tissue homogenized with an ultrasonic homogenizer (on ice). The homogenated tissue was vortexed and centrifuged for 10 min (20000 g at 4° C.). The supernatant was transferred to a test tube and evaporated, and the residue was reconstituted in water and its fluoresence intensity was determined by using a fluorescence plate reader (excitation/emission:470/525 nm). For quantification of the compounds, a standard curve was prepared by spiking a known amount of AB143 and AB145 into spinal cord tissue from control mice prior to homogenization, followed by work-up and analysis similar to the drug-treated mice.

[7] = Physiological status of pMCAO mice (blood values, body weight, temperature, survival); assay type: in vivo; conditions: pMCAO 48 h experiment, 1 hour after surgery, mean ± SEM
Description: The physiological status of the mice was carefully monitored prior to and during pMCAO surgery in order to exclude the observed effects of treatment with dimeric PSD-95 inhibitors being due to secondary conditions (e.g. disease-related) resulting from the experimental procedure.
9.10 Body weight monitoring: The body weight of each mouse was registered during pre-training, before surgery, and at 24 and 48 hours after surgery and no differences were seen between the treatment groups (FIG. 13).
9.11 Temperature monitoring: The rectal temperature of the mouse was continuously measured using a thermocoupled probe connected to a Model Bat 12 unit (Physitemp). The temperature was measured prior to and 30 min after pMCAO in addition to 30 min and 2.5 hours after i.v. injection, i.e. 1 and 3 hours after pMCAO.
9.12 Blood gas analysis: One samples of venous blood was taken for blood gas analysis of PO2/PCO2 electrolytes, glucose, lactate, and hematocrit, 30 min after compound administration (1 hour after pMCAO). A capillary heparin coated tube was inserted along the inner corner of eye and turned until it penetrated the conjunctiva. A sample of blood (150 μl) was collected and stored on ice until gas analysis using the GEM Premier 300 blood gas instrument (Instrumentation Laboratory) Quality controls (QC ContrlIL9) were purchased from IL Sensor Systems. Also, no differences were detected in blood gas parameters (PO2/PCO2, pH, electrolytes, glu/lac), which were similar between the groups and within normal range, when compared to unmanipulated control mice (Table 4).

[8] = tested on: pMCAO model of cerebral focal ischemia; assay: pMCAO model of cerebral focal ischemia, infarct volume; assay type: in vivo, mice; conditions: 3 nmol/g i.v. 30 min after pMCAO

Compound	half-life at 0.25 mM [1]	grip strength asymmetry between right and left front paw [2]	total grip strength (both paws) compared to baseline [2]	ability to enter the brain (concluded from fluorescent surrogates) [3]	CFA-induced mechanical hyperalgesia [4]	total time spent on the rod [5]	short term learning skill improvement on rotarod compared to saline ([5]; trials T1-T4)	ability to enter spinal cord tissue (concluded from fluorescent surrogates) [6]	blood pH ([7]; 3 nmol/g i.v.)	Hct [7]	[Ca2+] [7]	[K+] [7]	[Lactate] [7]	[Na+] [7]	pCO2 [7]	pO2 [7]	reduction of ischemic tissue damage (infarct volume) compared to saline ([8]; 6 hour post-surgical survival)	reduction in infarct size compared to saline ([8]; 48 hours after pMCAO)
CC[C@H](C)[C@H](NC(=O)CCOCCOCCN(CCOCCOCCC(=O)N[C@H](C(=O)N[C@@H](CCC(=O)O)C(=O)N[C@H](C(=O)N[C@@H](CC(=O)O)C(=O)N[C@H](C(=O)O)C(C)C)[C@@H](C)O)[C@@H](C)CC)C(=O)[C@H](CCCNC(=N)N)NC(=O)[C@H](CCCNC(=N)N)NC(=O)[C@H](CCCNC(=N)N)NC(=O)[C@H](CCC(N)=O)NC(=O)[C@H](CCCNC(=N)N)NC(=O)[C@H](CCCNC(=N)N)NC(=O)[C@H](CCCCN)NC(=O)[C@H](CCCCN)NC(=O)[C@H](CCCNC(=N)N)NC(=O)CNC(=O)[C@@H](N)Cc1ccc(O)cc1)C(=O)N[C@@H](CCC(=O)O)C(=O)N[C@H](C(=O)N[C@@H](CC(=O)O)C(=O)N[C@H](C(=O)O)C(C)C)[C@@H](C)O [AB144, Tat-NPEG4(IETDV)2]	81.7 ± 1.67 h	no asymmetry and not	no significant change in total grip strength; also recorded: No difference compared to baseline	ability to cross the blood-brain barrier; also recorded: able to enter the brain	prevented the development of CFA-induced mechanical hyperalgesia	83.5 ± 4.1 s	more pronounced short term learning skill improvement	able to enter CNS spinal cord tissue at relevant concentrations	7.16 ± 0.01	43.5 ± 0.9%	1.30 ± 0.02 mmol/L	5.2 ± 0.20 mmol/L	0.93 ± 0.07 mmol/L	148 ± 2.0 mmol/L	95.7 ± 2.3 mmHg	50.2 ± 2.2 mmHg		
YGRKKRRQRRRKLSSIESDV [Tat-NR2B9c, reference compound]		observed	lost a significant amount of grip strength; also recorded: significant reduced grip strength			65.7 ± 3.6 s											did not provide a statistically significant reduction; also recorded: not achieved	no statistically significant infarct reduction
